Molecular target: T1, NMDA receptor (GRIN1/GRIN2A subunits) (Homo sapiens, UniProt Q05586+Q12879)
T1 construct: expressed in transfected cells; host or cells: HEK 293 cells, stably transfected with GRIN1 and transiently transfected with GRIN2A and CD8
Test: NMDA potentiation, whole-cell patch-clamp in HEK cells
Assay type: cell-based
Conditions: currents evoked by 30 μM NMDA and 5.0 μM Glycine, holding potential −80 mV; for activation at 0.1 µM: HEK293, compound 0.1 uM, read-out: NMDA 1a2A (%) Potentiation 0.1 uM; for activation at 1 µM: HEK293, compound 1 uM, read-out: NMDA 1a2A (%) Potentiation 1 uM

T1 sequence (Q12879 23-1464, other chains not shown): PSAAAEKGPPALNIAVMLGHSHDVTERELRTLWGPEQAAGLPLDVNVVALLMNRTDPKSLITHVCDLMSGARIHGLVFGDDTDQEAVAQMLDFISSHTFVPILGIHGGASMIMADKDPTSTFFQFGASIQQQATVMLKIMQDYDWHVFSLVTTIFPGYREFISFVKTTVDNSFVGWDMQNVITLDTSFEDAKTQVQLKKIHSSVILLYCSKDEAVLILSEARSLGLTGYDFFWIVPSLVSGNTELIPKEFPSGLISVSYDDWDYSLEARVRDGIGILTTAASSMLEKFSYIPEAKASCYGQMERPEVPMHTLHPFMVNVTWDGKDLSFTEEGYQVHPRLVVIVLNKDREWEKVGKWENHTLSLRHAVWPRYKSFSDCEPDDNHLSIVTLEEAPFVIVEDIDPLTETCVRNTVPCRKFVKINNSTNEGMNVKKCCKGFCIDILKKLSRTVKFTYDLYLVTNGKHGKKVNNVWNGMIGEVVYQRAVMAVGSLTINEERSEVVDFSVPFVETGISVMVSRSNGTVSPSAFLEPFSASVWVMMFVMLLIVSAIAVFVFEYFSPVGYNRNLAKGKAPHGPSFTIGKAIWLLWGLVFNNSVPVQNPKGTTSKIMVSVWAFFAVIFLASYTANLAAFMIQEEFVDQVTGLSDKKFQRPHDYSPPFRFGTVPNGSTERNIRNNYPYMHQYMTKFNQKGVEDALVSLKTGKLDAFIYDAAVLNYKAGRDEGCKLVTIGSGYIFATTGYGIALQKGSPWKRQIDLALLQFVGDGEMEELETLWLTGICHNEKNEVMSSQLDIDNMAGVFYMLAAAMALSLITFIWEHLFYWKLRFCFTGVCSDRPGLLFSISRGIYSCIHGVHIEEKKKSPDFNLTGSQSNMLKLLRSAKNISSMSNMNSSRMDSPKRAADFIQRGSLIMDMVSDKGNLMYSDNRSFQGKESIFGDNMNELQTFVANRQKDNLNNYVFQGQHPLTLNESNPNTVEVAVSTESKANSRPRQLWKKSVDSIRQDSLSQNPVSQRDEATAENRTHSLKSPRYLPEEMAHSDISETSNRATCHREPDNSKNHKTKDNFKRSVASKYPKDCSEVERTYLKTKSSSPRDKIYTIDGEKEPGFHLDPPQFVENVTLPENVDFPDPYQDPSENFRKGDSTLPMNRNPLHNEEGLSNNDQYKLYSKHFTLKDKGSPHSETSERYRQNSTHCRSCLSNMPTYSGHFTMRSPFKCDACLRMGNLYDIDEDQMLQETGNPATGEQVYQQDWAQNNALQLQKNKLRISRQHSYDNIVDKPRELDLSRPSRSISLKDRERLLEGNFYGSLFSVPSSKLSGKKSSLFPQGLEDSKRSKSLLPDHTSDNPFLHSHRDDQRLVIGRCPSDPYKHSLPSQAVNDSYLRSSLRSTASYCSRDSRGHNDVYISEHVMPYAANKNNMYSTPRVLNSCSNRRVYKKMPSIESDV

## C[C@H](CCC(C)(C)O)[C@H]1CC[C@H]2[C@@H]3CC[C@H]4C[C@](O)(C(F)(F)F)CC[C@@H]4[C@H]3CC[C@]12C
  activation at 0.1 µM: 14%
  activation at 1 µM: 85%

## CC(C)(O)CCC[C@H]1CCC2C3CC[C@H]4C[C@@](C)(O)CC[C@]4(C)C3CC[C@@]21C (stereo partly drawn)
  activation at 0.1 µM: 17%
  activation at 1 µM: 105%

## C[C@@H]([C@H]1CC[C@H]2[C@@H]3CC=C4C[C@@H](O)CC[C@]4(C)[C@H]3CC[C@]12C)C(C)(C)O
  activation at 0.1 µM: 4%
  activation at 1 µM: 24%

## C[C@H](CCC(C)(C)N)[C@H]1CC[C@H]2[C@@H]3CC=C4C[C@@H](O)CC[C@]4(C)[C@H]3CC[C@]12C
  activation at 0.1 µM: -8%
  activation at 1 µM: -19%

## C[C@H](CC(C)(C)O)[C@H]1CC[C@H]2[C@@H]3CC=C4C[C@@H](O)CC[C@]4(C)[C@H]3CC[C@]12C
  activation at 0.1 µM: -5%
  activation at 1 µM: 27%

## C[C@H](CC(F)(F)CO)[C@H]1CC[C@H]2[C@@H]3CC=C4C[C@@H](O)CC[C@]4(C)[C@H]3CC[C@]12C
  activation at 0.1 µM: 31%
  activation at 1 µM: 95%

## C[C@H](CCC(C)(C)O)[C@H]1CC[C@H]2[C@@H]3CC[C@H]4C[C@@](C)(O)CC[C@]4(C)[C@H]3CC[C@]12C
  activation at 0.1 µM: 87%

## C[C@H](CCC(C)(C)O)[C@H]1CC[C@H]2[C@@H]3CC=C4C[C@@](C)(O)CC[C@]4(C)[C@H]3CC[C@]12C
  activation at 0.1 µM: 128%
  activation at 1 µM: 348%

## CC(C)(O)CCO[C@H]1CCC2C3CC[C@H]4C[C@@](C)(O)CC[C@]4(C)C3CC[C@@]21C (stereo partly drawn)
  activation at 0.1 µM: 6%
  activation at 1 µM: 27%

## C[C@H](CCC(C)(C)O)[C@H]1CC[C@H]2[C@@H]3CC[C@@H]4C[C@@](O)(C(F)(F)F)CC[C@]4(C)[C@H]3CC[C@]12C
  activation at 0.1 µM: 9%
  activation at 1 µM: 18%

## C[C@H](CCC(C)(C)O)[C@H]1CC[C@H]2[C@@H]3CC[C@H]4C[C@@H](O)CC[C@@H]4[C@H]3CC[C@]12C
  activation at 0.1 µM: 19%
  activation at 1 µM: 44%

## CC[C@@]1(O)CC[C@@]2(C)C(=CC[C@H]3[C@@H]4CC[C@H]([C@H](C)CCC(C)(C)O)[C@@]4(C)CC[C@@H]32)C1
  activation at 0.1 µM: 23%
  activation at 1 µM: 139%

## C[C@H](CCC(C)(C)O)[C@H]1CC[C@H]2[C@@H]3CC[C@H]4C[C@](C)(O)CC[C@]4(C)[C@H]3CC[C@]12C
  activation at 0.1 µM: 19%
  activation at 1 µM: 30%

## C[C@H](CCC(C)(C)O)[C@H]1CC[C@H]2[C@@H]3CC[C@H]4C[C@@H](O)CC[C@]4(C)[C@H]3CC[C@]12C
  activation at 0.1 µM: 18%
  activation at 1 µM: 85%

## C[C@H](CCC(C)(C)O)[C@H]1CC[C@H]2[C@@H]3CC[C@H]4C[C@@](C)(O)CC[C@@H]4[C@H]3CC[C@]12C
  activation at 0.1 µM: 25%
  activation at 1 µM: 114%

## CC(O)CC[C@@H](C)[C@H]1CC[C@H]2[C@@H]3CC=C4C[C@@H](O)CC[C@]4(C)[C@H]3CC[C@]12C (stereo partly drawn)
  activation at 0.1 µM: 42%
  activation at 1 µM: 98%

## C[C@H](CCC(C)(C)O)[C@H]1CC[C@H]2[C@@H]3CC[C@H]4C[C@](O)(C(F)(F)F)CC[C@]4(C)[C@H]3CC[C@]12C
  activation at 0.1 µM: 59%
  activation at 1 µM: 172%

## C[C@H](CCC(C)(C)O)[C@H]1CC[C@H]2[C@@H]3CC[C@H]4C[C@](C)(O)CC[C@@H]4[C@H]3CC[C@]12C
  activation at 0.1 µM: 21%
  activation at 1 µM: 52%

## C[C@H](CCC(C)(C)O)[C@H]1CC[C@H]2[C@@H]3CC=C4C[C@@H](O)CC[C@@H]4[C@H]3CC[C@]12C
  activation at 0.1 µM: 28%
  activation at 1 µM: 66%

## CC(C)[C@H](O)CC[C@@H](C)[C@H]1CC[C@H]2[C@@H]3CC=C4C[C@@H](O)CC[C@]4(C)[C@H]3CC[C@]12C
  activation at 0.1 µM: 82%
  activation at 1 µM: 137%

## CC(CCC(C)(C)O)[C@H]1CC[C@H]2[C@@H]3CC=C4C[C@@H](O)CC[C@]4(C)[C@H]3CC[C@]12C (stereo partly drawn) [Compound 1]
  activation at 0.1 µM: 55%
  activation at 1 µM: 197%

## COC[C@]1(O)CC[C@@]2(C)[C@@H](CC[C@@H]3[C@@H]2CC[C@]2(C)[C@@H]([C@H](C)CCC(C)(C)O)CC[C@@H]32)C1
  activation at 0.1 µM: 14%
  activation at 1 µM: 110%

## COC[C@@]1(O)CC[C@@]2(C)[C@@H](CC[C@@H]3[C@@H]2CC[C@]2(C)[C@@H]([C@H](C)CCC(C)(C)O)CC[C@@H]32)C1
  activation at 0.1 µM: 8%
  activation at 1 µM: 25%

## C[C@H](CCC(C)(C)O)[C@H]1CC[C@H]2[C@@H]3CC=C4C[C@](C)(O)CC[C@]4(C)[C@H]3CC[C@]12C
  activation at 0.1 µM: 13%
  activation at 1 µM: 60%

## CC(C)(O)COC[C@H]1CCC2C3CC=C4C[C@@](C)(O)CC[C@]4(C)C3CC[C@@]21C (stereo partly drawn)
  activation at 0.1 µM: -5%
  activation at 1 µM: -14%

## C[C@H](CCCO)[C@H]1CC[C@H]2[C@@H]3CC=C4C[C@@H](O)CC[C@]4(C)[C@H]3CC[C@]12C
  activation at 0.1 µM: 39%
  activation at 1 µM: 127%

## CC[C@]1(O)CC[C@@]2(C)C(=CC[C@H]3[C@@H]4CC[C@H]([C@H](C)CCC(C)(C)O)[C@@]4(C)CC[C@@H]32)C1
  activation at 0.1 µM: 181%
  activation at 1 µM: 286%

## CNC(C)(C)CC[C@@H](C)[C@H]1CC[C@H]2[C@@H]3CC=C4C[C@@H](O)CC[C@]4(C)[C@H]3CC[C@]12C
  activation at 0.1 µM: 25%
  activation at 1 µM: 19%

## C[C@H](CCC1(O)CC1)[C@H]1CC[C@H]2[C@@H]3CC=C4C[C@@H](O)CC[C@]4(C)[C@H]3CC[C@]12C
  activation at 0.1 µM: 74%
  activation at 1 µM: 171%
